# Legend:
# [1] = Long-term storage stability of emulsions (assay, pH, particle size); type: physicochemical; details: 5 mg/mL emulsion
# Protocol: Calcimimetics emulsions for long-term studies were prepared at 5 mg/mL drug concentration, 5% SBO, 2% egg lecithin, 2% glycerin, 20 mM TRIS buffer at pH 9. The emulsions were packed in glass vials at 20 mL each and stored inverted in stability chambers. At each time-point, 3 vials from each chamber were pulled and analyzed for the calcimimetic concentration, pH and particle size. […] The values for pH dropped over time, with greater magnitude of drop seen at higher temperature.
# rabbit ear vein = test: Acute local venous toxicity / irritation in the rabbit ear vein (REV); type: in vivo; design: Erythema / Edema: scale not given here
# Source text: This Example illustrates the protective effect of the formulations of the invention as measured by irritation in the rabbit ear vein (REV). A typical protocol for evaluation of the local tolerance for formulations was as follows.
# Dosing of animals. The rabbits used were male New Zealand rabbits weighing approximately 2.5 to 4 kg. The rabbits were acclimatized for a period of 10 days following receipt before the start of the study. The rabbits were randomized into groups based on the number of formulations to be studied. Typically 3 rabbits were used per group.
# For each group of rabbits, the formulation containing the drug to be tested was dosed in the right marginal ear vein, with the corresponding placebo being dosed at the same time in the left marginal ear vein. The placebos were prepared such that they matched the formulation composition, and the technique of dosing for the drug formulations and the placebo formulations were kept the same. Typical dosing volumes ranged from 1 mL/kg to 5 mL/kg. The formulations were either dosed as (a) bolus injection wherein the entire dosing volume was administered within 5 minutes; (b) 30 minute infusion; or (c) a 2 hour infusion. The formulations were administered through appropriately sized syringes and catheters. The injection sites were marked with indelible ink for identification at each observation period. The rabbits were dosed based upon the Day 1 body weight.
# Observation of animals. Each animal was observed cage side at least twice daily for mortality/morbundity. Each animal received a detailed clinical observation once prior to randomization, once prior to dosage administration and once daily thereafter.
# Any abnormalities were recorded as they were observed. Observations for local irritation were scored according to the following scale
# At each interval the area of irritation (if present) was also measured. The actual length and width in mm was recorded.
# On day 3 the animals were euthanized and the tissues from the Pinna of the left and right ear, and any gross lesions (if present) of the ear or ear vein were collected. Histopathology was performed on the collected tissues. After fixation, the pinna was tripped into a total of 4 sections of 1 cm each; one of which included the deposition site (location of the end of the catheter in the ear) and one from approximately 1-, 2-, and 3-cm downstream from the deposition site. Each section included skin, cartilage, vein and other soft tissue. These tissues were then embedded in paraffin, sectioned and stained with hematoxylin and eosin, and examined via light microscopy.
# [2] = Zeta-potential vs pH of cinacalcet emulsions containing sodium oleate; type: physicochemical; details: cinacalcet emulsion; for pH at which charge is zero: from linear regression line; for zeta-potential: in mV (unit assumed)
# Protocol: Preparation of Each Emulsion: the Emulsion were Prepared Using Substantially the same method as discussed above in Example 2 under “Laboratory scale preparation.” Briefly, the aqueous phase was prepared by adding appropriate amounts of glycerin and water to an appropriate container. The glycerin and water were mixed well and maintained at elevated temperatures (60-70° C.) by immersing the container in a water batch.
# The oil phase was prepared by adding appropriate oil and lecithin. The container was tared and the cinacalcet free base was added. Appropriate quantity of sodium oleate (between 0-1%) was added to this oil phase mixture. The oil/lecithin/cinacalcet mixture was mixed at an elevated temperature using sonicater probes to disperse/dissolve the lecithin, the Cinacalcet free base and the sodium oleate.
# The hot oil phase was transferred to the aqueous phase at elevated temperatures and homogenized to obtain coarse emulsion. Fine emulsion was obtained using a microfluidizer.
# Charge Measurement: Zeta-potential as a function of pH was determined using a Malvern Zetasizer Nano Series Model ZEN 3600 laser-scattering particle electrophoretic analyzer that measures the electrophoretic mobility and zeta potential distribution. Samples were prepared for the zeta potential titration by diluting each emulsion approximately 2500-fold in water. The pH of this mixture was noted after dilution, and then adjusted to a pH 9 using sodium hydroxide. The pH was then titrated down to pH 6 in 0.3 or 0.5 unit steps. Zeta potential measurements were taken at every step. The zeta-potential of each emulsion was plotted as a function of pH and fit to a linear regression line.
# [3] = emulsion with DEA buffer 0.05%, pH 9, Bolus dose, 2 mg/kg (conc. 10 mg/mL), 0 h
# [4] = emulsion with DEA buffer 0.05%, pH 9, Bolus dose, 2 mg/kg (conc. 10 mg/mL), 48 h
# [5] = emulsion with TRIS buffer 5 mM, pH 9, Bolus dose, 2 mg/kg (conc. 10 mg/mL), 0 h
# [6] = emulsion with TRIS buffer 5 mM, pH 9, Bolus dose, 2 mg/kg (conc. 10 mg/mL), 48 h
# [7] = emulsion with TRIS buffer 20 mM, pH 9, 2-hour infusion, 2 mg/kg (conc. 0.5 mg/mL), 0 h
# [8] = emulsion with TRIS buffer 20 mM, pH 9, 2-hour infusion, 2 mg/kg (conc. 0.5 mg/mL), 48 h
# [9] = solution in acetate mannitol buffer, pH 4, 2 hour infusion, 2 mg/kg (conc. 0.5 mg/mL), 0 h
# [10] = solution in acetate mannitol buffer, pH 4, 2 hour infusion, 2 mg/kg (conc. 0.5 mg/mL), 48 h
# [11] = solution in acetate mannitol buffer, pH 4, Bolus dose, 2 mg/kg (conc. 0.5 mg/mL), 0 h
# [12] = solution in acetate mannitol buffer, pH 4, Bolus dose, 2 mg/kg (conc. 0.5 mg/mL), 48 h
# [13] = solution in acetate mannitol buffer, pH 4, Bolus dose, 2 mg/kg (conc. 1 mg/mL), 0 h
# [14] = solution in acetate mannitol buffer, pH 4, Bolus dose, 2 mg/kg (conc. 1 mg/mL), 48 h
smiles,measurement,setting,value
"C[C@@H](NCCCc1cccc(C(F)(F)F)c1)c1cccc2ccccc12 [Cinacalcet, N-(1-(R)-(1-naphthyl)ethyl]-3-[3-(trifluoromethyl)phenyl]-1-aminopropane]",changes in particle size,[1]; 2 years at 5° C. and 25° C.,No significant changes
same,cinacalcet assay and impurity levels,[1]; 2 years at 5° C. and 25° C.,within specifications
same,cinacalcet assay and impurity levels,[1]; 9 months at 40° C.,within specifications
same,changes in particle size,[1]; 18 months at 40° C.,No significant changes
same,local venous toxicity,"rabbit ear vein; administered IV as a solution, acetate mannitol buffer at pH 4",mild to moderate
same,local venous toxicity effects,"rabbit ear vein; cinacalcet-containing emulsions, compared with solution",greatly reduced or completely eliminated
same,tolerability,"rabbit ear vein; emulsion buffered with either TRIS or DEA, dosed as bolus",well tolerated
same,tolerability,rabbit ear vein; emulsion containing TRIS dosed as an infusion,well tolerated
same,Edema,rabbit ear vein; [3],0.0 ± 0.0
same,Erythema,rabbit ear vein; [3],0.3 ± 0.6
same,Edema,rabbit ear vein; [4],0.0 ± 0.0
same,Erythema,rabbit ear vein; [4],0.0 ± 0.0
same,Histopathology,"rabbit ear vein; emulsion with DEA buffer 0.05%, pH 9, Bolus dose, observed for both placebo and cinacalcet emulsions",Mild to moderate perivascular acute
same,Edema,rabbit ear vein; [5],0.0 ± 0.0
same,Erythema,rabbit ear vein; [5],0.0 ± 0.0
same,Edema,rabbit ear vein; [6],0.0 ± 0.0
same,Erythema,rabbit ear vein; [6],0.0 ± 0.0
same,Histopathology,"rabbit ear vein; emulsion with TRIS buffer 5 mM, pH 9, Bolus dose, observed for both placebo and cinacalcet emulsions",Minimal to mild perivascular acute
same,Histopathology,"rabbit ear vein; emulsion with TRIS buffer 20 mM, pH 9, 2-hour infusion, 2 mg/kg (conc. 0.5 mg/mL)",lipid emulsion was well tolerated as a 2 hour
same,Edema,rabbit ear vein; [7],0.0 ± 0.0
same,Erythema,rabbit ear vein; [7],0.0 ± 0.0
same,Edema,rabbit ear vein; [8],0.0 ± 0.0
same,Erythema,rabbit ear vein; [8],0.0 ± 0.0
same,Histopathology,"rabbit ear vein; solution in acetate mannitol buffer, pH 4, 2 hour infusion, 2 mg/kg (conc. 0.5 mg/mL)","mild to severe acute, necrotizing inflammation"
same,Edema,rabbit ear vein; [9],0.0 ± 0.0
same,Erythema,rabbit ear vein; [9],0.0 ± 0.0
same,Edema,rabbit ear vein; [10],3.3 ± 1.2
same,Erythema,rabbit ear vein; [10],4.0 ± 0.0
same,Histopathology,"rabbit ear vein; solution in acetate mannitol buffer, pH 4, Bolus dose, 2 mg/kg",Mnimal to mild infiltrates of mixed
same,Edema,rabbit ear vein; [11],0.0 ± 0.0
same,Erythema,rabbit ear vein; [11],0.0 ± 0.0
same,Edema,rabbit ear vein; [12],1.7 ± 0.6
same,Erythema,rabbit ear vein; [12],2.7 ± 0.6
same,Edema,rabbit ear vein; [13],0.0 ± 0.0
same,Erythema,rabbit ear vein; [13],0.0 ± 0.0
same,Edema,rabbit ear vein; [14],2.0 ± 1.7
same,Erythema,rabbit ear vein; [14],2.7 ± 0.6
same,Histopathology,"rabbit ear vein; solution in acetate mannitol buffer, pH 4, Bolus dose, at the higher dose",Mild to severe effects seen at the higher
same,tolerability when administered IV,"rabbit ear vein; solution, acetate mannitol buffer at pH 4",poorly tolerated
same,pH at which charge is zero,[2]; 0% Na Oleate,8.02
same,pH at which charge is zero,[2]; 0.25% Na Oleate,7.87
same,pH at which charge is zero,[2]; 0.5% Na Oleate,7.81
same,pH at which charge is zero,[2]; 1% Na Oleate,7.54
same,zeta-potential,"[2]; pH 6.5, 0% Na Oleate",32.8
same,zeta-potential,"[2]; pH 6.5, 0.25% Na Oleate",36
same,zeta-potential,"[2]; pH 6.5, 0.5% Na Oleate",37.4
same,zeta-potential,"[2]; pH 6.5, 1% Na Oleate",24.5
same,zeta-potential,"[2]; pH 7.0, 0% Na Oleate",17.8
same,zeta-potential,"[2]; pH 7.0, 0.25% Na Oleate",28.1
same,zeta-potential,"[2]; pH 7.0, 0.5% Na Oleate",27.8
same,zeta-potential,"[2]; pH 7.0, 1% Na Oleate",23.8
same,zeta-potential,"[2]; pH 7.5, 0% Na Oleate",15.3
same,zeta-potential,"[2]; pH 7.5, 0.25% Na Oleate",7.24
same,zeta-potential,"[2]; pH 7.5, 0.5% Na Oleate",16.2
same,zeta-potential,"[2]; pH 7.5, 1% Na Oleate",4.87
same,zeta-potential,"[2]; pH 8.0, 0% Na Oleate",15
same,zeta-potential,"[2]; pH 8.0, 0.25% Na Oleate",2.83
same,zeta-potential,"[2]; pH 8.0, 0.5% Na Oleate",0.242
same,zeta-potential,"[2]; pH 8.0, 1% Na Oleate",−10.7
same,zeta-potential,"[2]; pH 8.5, 0% Na Oleate",−16.7
same,zeta-potential,"[2]; pH 8.5, 0.25% Na Oleate",−10
same,zeta-potential,"[2]; pH 8.5, 0.5% Na Oleate",−26.8
same,zeta-potential,"[2]; pH 8.5, 1% Na Oleate",−30.4
same,zeta-potential,"[2]; pH 9.0, 0% Na Oleate",−26.5
same,zeta-potential,"[2]; pH 9.0, 0.25% Na Oleate",−42.5
same,zeta-potential,"[2]; pH 9.0, 0.5% Na Oleate",−42.1
same,zeta-potential,"[2]; pH 9.0, 1% Na Oleate",−52.9
